IC50 data for 42 molecules are collected here from patent US9938292B2 (GUANGDONG ZHONGSHENG PHARMACEUTICAL CO., LTD, priority 2014, dated 2018).

The structures appear in SMILES notation. pIC50: −log10 of the molar value. Like-named read-outs stand apart in the source and are kept apart here.

The assay has as its system Hedgehog signaling pathway. The assay is described as follows: Gli-Luc luciferase reporter gene assay in C3H10T1/2/Gli-Luc cells under Shh-N stimulation. Type of assay: cell-based. As to conditions: luciferase RLU, read-out: biological activity: IC50 of the inhibitory activities of compounds on the hedgehog pathway. The source says:
The luciferase (Gli-Luc) reporter gene with Gli response element was transfected into C3H10T1/2 cells, under Shh-N stimulation conditions, determine the Hedgehog signaling pathway inhibitors through the detection of gene expression in cell activity report. In this study, we evaluated the inhibitory effects of compounds on Hedgehog signaling pathway in the IC50 value of the compound as an index.
Cell lines: C3H10T1/2/Gli-Luc stable cell line • C3H10T1/2/Gli-Luc Cell culture medium (DMEM/high glucose HyClone, #SH30022.01B; 10% serum Hyclone, #SV30087; 0.4% Hygromycin B Roche, #13398200) • 0.25% Trypsin-EDTA (Gibco, #25200)
Shh-N, HEK293/SHH-N stable cell culture supernatant
Inoculate the logarithmic growth phase of C3H10T1/2/Gli-Luc cells into a 96-well culture plate with 20000 cells per well, cells were cultured in a 37° C., 5% CO2 incubator overnight. The next day, the compounds were diluted in the following ways: the positive compound GDC0449 (1 mM) and the compounds (1 mM) to be measured were serially diluted to 7 concentrations by DMSO according to 1:3 and 1:10 respectively, the eighth is for DMSO control, and then diluted with fresh medium 100 times. The medium of the cells cultured overnight was removed, 80 μL fresh culture medium was added per well, then 20 μL gradiently diluted positive compound and compounds to be measured and 100 μL 30 nM Shh-N containing conditioned medium were added, each concentration repeated 2 wells, at the same time, positive and negative reference well were set (i.e. Shh Ctrl: 80 μL fresh medium+20 μL 1% DMSO containing medium+100 μL 30 nM Shh-N containing conditioned medium; Unstimulated Ctrl: 180 μL fresh medium+20 μL 1% DMSO containing medium), cells were cultured in the incubator for further 24 h.
Intracellular luciferase activity detection: take the cells out of 96-well plate, discard the culture medium, the cells were washed with PBS twice, then each well added with 20 μL lysate (Promega E1531), oscillate pyrolysis at room temperature for 30 min. 5 μL cell lysates were transferred to 384-well plate (Greiner 781074), then each well was added with 25 μL luciferase reaction liquid (Promega E1501), after rapid mixed, immediately placed into the VarioSkan Flash multi-function reading instrument to read the relative light units (RLU) value.
Data analysis: using Prism's GraphPad 5 for data analysis. RLU reading to the logarithmic mapping of compound concentration on behalf of luciferase activity, and then curve fitting using the following equation to give IC50 value, Y (RLU)=minimum+(maximum−minimum)/(1+10^(log of compound concentration−Log IC50)).

Regarding `COc1c(-c2ccc(N3C[C@@H](C)O[C@@H](C)C3)cc2)cnc2c(-c3ccc(C#N)cc3)cncc12`, the pIC50 (Mus musculus, C3H 10T1/2, 24 h) is not below 7.30. For `Cc1cn(-c2ccc(N3C[C@H](C)C[C@@H](C)C3)cc2)c(=O)c2cccc(-c3ccc(C#N)cc3)c12` [Embodiment 1, 4-(2-(4-((3R,5R)-3,5-dimethylpiperidin-1-yl)phenyl)-4-methyl-1-oxo-1,2-dihydroisoquinolin-5-yl)benzonitrile], the pIC50 (Mus musculus, C3H 10T1/2, 24 h) was 6.30 to 7.00. On the same count and under the same terms, with `Cc1cn(-c2ccc(N3CC(C)OC(C)C3)cc2)c(=O)c2cccc(-c3ccc(C#N)cc3)c12` (stereo not drawn) [Embodiment 2] the figure was 6.30 to 7.00.

Regarding `Cc1cn(-c2ccc(N3CC(C)CC(C)C3)cc2)c(=O)c2cccc(-c3ccc(C#N)cc3)c12` (stereo not drawn) [Embodiment 3], under “Mus musculus, C3H 10T1/2, 24 h”, the negative logarithm of the IC50 (pIC50) was 6.30 to 7.00. As to `Cc1cn(-c2ccc(N3CCOC(C)(C)C3)cc2)c(=O)c2cccc(-c3ccc(C#N)cc3)c12` [Embodiment 4], the pIC50 (Mus musculus, C3H 10T1/2, 24 h) was 6.30 to 7.00.

With `COc1cccc(N2CCN(c3ccc(-n4cc(C)c5c(-c6ccc(C#N)cc6)cccc5c4=O)cc3)CC2(C)C)c1` [Embodiment 5], where the note is “Mus musculus, C3H 10T1/2, 24 h”, the pIC50 is 6.30 to 7.00. Still for that read-out and setting: with `Cc1cn(-c2ccc(N3CC4CC3CO4)cc2)c(=O)c2cccc(-c3ccc(C#N)cc3)c12` (stereo not drawn) [Embodiment 6] the figure was 6.00 to 6.30. For `Cc1cn(-c2ccc(N3CC4CCC(C3)O4)cc2)c(=O)c2cccc(-c3ccc(C#N)cc3)c12` [Embodiment 7], under “Mus musculus, C3H 10T1/2, 24 h”, the negative-log IC50 (pIC50) was 6.00 to 6.30. Take `Cc1cn(-c2ccc(N3CCOC(CN(C)C)C3)cc2)c(=O)c2cccc(-c3ccc(C#N)cc3)c12` (stereo not drawn) [Embodiment 9]: the negative logarithm of the IC50 (pIC50) (Mus musculus, C3H 10T1/2, 24 h) is 5.30 to 6.00.

For the molecule `Cc1cn(-c2ccc(N3CCN4CCC[C@H]4C3)cc2)c(=O)c2cccc(-c3ccc(C#N)cc3)c12` [Embodiment 10], the negative logarithm of the IC50 (pIC50) (Mus musculus, C3H 10T1/2, 24 h) was 6.30 to 7.00. Regarding `Cc1cn(-c2ccc(N3CCN4CCCC4C3)cc2)c(=O)c2cccc(-c3ccc(C#N)cc3)c12` (stereo not drawn) [Embodiment 11], under “Mus musculus, C3H 10T1/2, 24 h”, the negative logarithm of the IC50 (pIC50) was 6.30 to 7.00. Same read-out and setting: with `Cc1cn(-c2ccc(NCCN3C[C@@H](C)O[C@@H](C)C3)cc2)c(=O)c2cccc(-c3ccc(C#N)cc3)c12` [Embodiment 12] the figure was 6.00 to 6.30; with `Cc1cn(-c2ccc(N3CCN(c4nsc5ccccc45)CC3)cc2)c(=O)c2cccc(-c3ccc(C#N)cc3)c12` [Embodiment 13], 6.30 to 7.00. The same measure, in the same setting: with `Cc1cn(-c2ccc(N3C[C@@H](C)N(C(=O)c4ccccc4)[C@H](C)C3)cc2)c(=O)c2cccc(-c3ccc(C#N)cc3)c12` [Embodiment 14, 4-(2-(4-((3R,5R)-4-benzoyl-3,5-dimethylpiperazin-1-yl)phenyl)-4-methyl-1-oxo-1,2-dihydroisoquinolin-5-yl)benzonitrile] the figure was 7.00 to 7.30; with `Cc1cn(-c2ccc(N3CC(C)NC(C)C3)cc2)c(=O)c2cccc(-c3ccc(C#N)cc3)c12` (stereo not drawn) [Embodiment 15], 6.30 to 7.00. The same measure, in the same setting: with `Cc1cn(-c2ccc(N3CC(C)N(C(=O)OC(C)(C)C)C(C)C3)cc2)c(=O)c2cccc(-c3ccc(C#N)cc3)c12` (stereo not drawn) [Embodiment 16] the figure was 6.30 to 7.00.

Regarding `CCC(=O)N1CCN(c2ccc(-n3cc(C)c4c(-c5ccc(C#N)cc5)cccc4c3=O)cc2)CC1C` (stereo not drawn) [Embodiment 17], the pIC50 (Mus musculus, C3H 10T1/2, 24 h) is 7.00 to 7.30.

`CCC(=O)N1CCN(c2ccc(-n3cc(C)c4c(-c5ccc(C#N)cc5)cccc4c3=O)cc2)CC1c1ccccc1` (stereo not drawn) [Embodiment 18]: under “Mus musculus, C3H 10T1/2, 24 h”, the negative logarithm of the IC50 (pIC50) was 6.30 to 7.00. As for `COC(=O)N1[C@H](C)CN(c2ccc(-n3cc(C)c4c(-c5ccc(C#N)cc5)cccc4c3=O)cc2)C[C@H]1C` [Embodiment 19], the negative logarithm of the IC50 (pIC50) (Mus musculus, C3H 10T1/2, 24 h) was 6.30 to 7.00. As for `CCOC(=O)N1[C@H](C)CN(c2ccc(-n3cc(C)c4c(-c5ccc(C#N)cc5)cccc4c3=O)cc2)C[C@H]1C` [Embodiment 20], the pIC50 (Mus musculus, C3H 10T1/2, 24 h) was 6.30 to 7.00.

Regarding `Cc1cn(-c2ccc(N3C[C@@H](C)N(C(=O)c4ccccc4)[C@H](C)C3)cc2)c(=O)c2cccc(-c3ccc(C#N)cc3)c12` [Embodiment 21], the pIC50 (24 h) was 6.30 to 7.00. On to `CC(=O)N1C(C)CN(c2ccc(-n3cc(C)c4c(-c5ccc(C#N)cc5)cccc4c3=O)cc2)CC1C` (stereo not drawn) [Embodiment 22], for which, for the setting “Mus musculus, C3H 10T1/2, 24 h”, the negative-log IC50 (pIC50) was 7.00 to 7.30. Consider `Cc1cn(-c2ccc(N3CC(C)N(C(=O)C(C)C)C(C)C3)cc2)c(=O)c2cccc(-c3ccc(C#N)cc3)c12` (stereo not drawn) [Embodiment 24], for which the pIC50 (Mus musculus, C3H 10T1/2, 24 h) was 7.00 to 7.30. Turning to `Cc1cn(-c2ccc(N3CC(C)N(C(=O)C(C)(C)C)C(C)C3)cc2)c(=O)c2cccc(-c3ccc(C#N)cc3)c12` (stereo not drawn) [Embodiment 25], the pIC50 (Mus musculus, C3H 10T1/2, 24 h) was 7.00 to 7.30.

In the case of `Cc1cn(-c2ccc(N3CC(C)N(C(=O)C4CC4)C(C)C3)cc2)c(=O)c2cccc(-c3ccc(C#N)cc3)c12` (stereo not drawn) [Embodiment 26], the pIC50 (Mus musculus, C3H 10T1/2, 24 h) is 7.00 to 7.30. Same read-out and setting: with `Cc1cn(-c2ccc(N3CC(C)N(C(=O)c4ccccc4)C(C)C3)cc2)c(=O)c2cccc(-c3ccc(C#N)cc3)c12` (stereo not drawn) [Embodiment 27] the figure was not below 7.30; with `COC(=O)N1C(C)CN(c2ccc(-n3cc(C)c4c(-c5ccc(C#N)cc5)cccc4c3=O)cc2)CC1C` (stereo not drawn) [Embodiment 28], not below 7.30; with `Cc1cn(-c2ccc(N3CC(C)N(C(=O)OC(C)C)C(C)C3)cc2)c(=O)c2cccc(-c3ccc(C#N)cc3)c12` (stereo not drawn) [Embodiment 29], 6.30 to 7.00. The same measure, in the same setting: with `CNC(=O)N1C(C)CN(c2ccc(-n3cc(C)c4c(-c5ccc(C#N)cc5)cccc4c3=O)cc2)CC1C` (stereo not drawn) [Embodiment 30] the figure was 6.30 to 7.00; with `Cc1cn(-c2ccc(N3CC(C)N(S(C)(=O)=O)C(C)C3)cc2)c(=O)c2cccc(-c3ccc(C#N)cc3)c12` (stereo not drawn) [Embodiment 31], 6.30 to 7.00; with `Cc1cn(-c2ccc(N3CC(C)N(S(=O)(=O)c4ccccc4)C(C)C3)cc2)c(=O)c2cccc(-c3ccc(C#N)cc3)c12` (stereo not drawn) [Embodiment 32], 6.30 to 7.00.

Turning to `Cc1cn(-c2ccc(N3CC(C)N(C)C(C)C3)cc2)c(=O)c2cccc(-c3ccc(C#N)cc3)c12` (stereo not drawn) [Embodiment 33, 4-(4-methyl-1-oxo-2-(4-(3,4,5-trimethylpiperazin-1-yl)phenyl)-1,2-dihydroisoquinolin-5-yl)benzonitrile], the pIC50 (Mus musculus, C3H 10T1/2, 24 h) is 6.30 to 7.00. The same measure, in the same setting: with `CCN1C(C)CN(c2ccc(-n3cc(C)c4c(-c5ccc(C#N)cc5)cccc4c3=O)cc2)CC1C` (stereo not drawn) [Embodiment 34] the figure was 6.30 to 7.00; with `Cc1cn(-c2ccc(N3CC(C)N(Cc4ccccc4)C(C)C3)cc2)c(=O)c2cccc(-c3ccc(C#N)cc3)c12` (stereo not drawn) [Embodiment 35], 6.30 to 7.00. On to `Cc1cn(-c2ccc(N3CC(C)N(CC4CC4)C(C)C3)cc2)c(=O)c2cccc(-c3ccc(C#N)cc3)c12` (stereo not drawn) [Embodiment 36], for which, for the setting “Mus musculus, C3H 10T1/2, 24 h”, the pIC50 is 6.30 to 7.00. With `Cc1cn(-c2ccc(N3CC(C)N(CC(C)(C)O)C(C)C3)cc2)c(=O)c2cccc(-c3ccc(C#N)cc3)c12` (stereo not drawn) [Embodiment 37], the negative-log IC50 (pIC50) (Mus musculus, C3H 10T1/2, 24 h) is 6.30 to 7.00.

Take `Cc1cn(-c2ccc(N3CC(C)N(c4nccs4)C(C)C3)cc2)c(=O)c2cccc(-c3ccc(C#N)cc3)c12` (stereo not drawn) [Embodiment 38]: the negative-log IC50 (pIC50) (Mus musculus, C3H 10T1/2, 24 h) is not below 7.30. The same measure, in the same setting: with `Cc1cn(-c2ccc(N3CC(C)(C)C(O)C(C)(C)C3)cc2)c(=O)c2cccc(-c3ccc(C#N)cc3)c12` [Embodiment 39, 4-(2-(4-(4-hydroxy-3,3,5,5-tetramethylpiperidin-1-yl)phenyl)-4-methyl-1-oxo-1,2-dihydroisoquinolin-5-yl)benzonitrile] the figure was not below 7.30; with `Cc1cn(-c2ccc(N3CCN4C(=O)CC[C@H]4C3)cc2)c(=O)c2cccc(-c3ccc(C#N)cc3)c12` [Embodiment 40, (S)-4-(4-methyl-1-oxo-2-(4-(6-oxo-hexahydropyrrolo[1,2-a]pyrazin-2(1H)-yl)phenyl)-1,2-dihydroisoquinolin-5-yl)benzonitrile], not below 7.30. The same measure, in the same setting: with `Cc1cn(-c2ccc(N3Cc4nnc(C(F)(F)F)n4C(C)C3)cc2)c(=O)c2cccc(-c3ccc(C#N)cc3)c12` (stereo not drawn) [Embodiment 41, 4-(4-methyl-2-(4-(5-methyl-3-(trifluoromethyl)-5,6-dihydro-[1,2,4]triazolo[4,3-a]pyrazin-7(8H)-yl)phenyl)-1-oxo-1,2-dihydroisoquinolin-5-yl)benzonitrile] the figure was not below 7.30. In the case of `Cc1cn(-c2ccc(N3CCN4C(=O)OCC4C3)cc2)c(=O)c2cccc(-c3ccc(C#N)cc3)c12` (stereo not drawn) [Embodiment 42, 4-(4-methyl-1-oxo-2-(4-(3-oxotetrahydro-1H-oxazolo[3,4-a]pyrazin-7(3H)-yl)phenyl)-1,2-dihydroisoquinolin-5-yl)benzonitrile], the negative-log IC50 (pIC50) (Mus musculus, C3H 10T1/2, 24 h) is 6.30 to 7.00. For the molecule `Cc1cn(-c2ccc(N3C[C@@H](C)O[C@@H](C)C3)cc2)c(=O)c2cccc(-c3ccoc3)c12` [Embodiment 43, 2-(4-((2S,6R)-2,6-dimethylmorpholino)phenyl)-5-(furan-3-yl)-4-methylisoquinolin-1(2H)-one], the pIC50 (Mus musculus, C3H 10T1/2, 24 h) was 5.30 to 6.00.
